In patent US20240197666A1, “DITERPENOID COMPOUNDS THAT ACT ON PROTEIN KINASE C (PKC)” (K-Gen Therapeutics, Inc., priority 2021, published 2024):

Legend:
[1] = Pharmacokinetic study, intravenous bolus injection in rats; type: in vivo, rat; settings: for AUClast / C0 / CL / MRTInf / Vss / Vz / t1/2: rat plasma, bolus injection
Description: Plasma samples were taken at 1 minute, 5 minutes, 15 minutes, 30 minutes, 1 hour, 2 hours, 4 hours, 7 hours, and 24 hours. The drug concentrations at each time point were determined by LC-MS. The results of drug concentrations and pharmacokinetic parameters are presented in the Table 6 and Table 7, respectively, below.

CT26 tumors = assay: CT26 syngeneic model, IT injection, efficacy and re-challenge; type: in vivo, mouse
Description: Each 6-8 weeks old female Balb/c mouse was implanted subcutaneously with 3×10^5 CT26 mouse colon cancer cells. 20 animals were randomized when the average tumor volume reached 60 mm3. Tumor size was measured as described in Example 76. Animal body weight was monitored regularly as an indirect measure of toxicity. All mice tolerated drug treatments very well with less than 10% body weight loss. […] Scabs formed a few days later and the skin recovered with minimal scaring within 3-4 weeks.
For the efficacy portion of the study, the major endpoints were tumor growth inhibition and the animal survival.
To test if anti-tumor immunity was developed in the cured mice, the re-challenge portion of the study was conducted. The major endpoint was the tumor initiation (measurable tumor >50 mm^3) of the re-implanted tumor cells.
CT26 cells (3×10^5) were re-implanted into the right lower flank of the cured animals and 10 age-matched naïve control animals from the same batch to challenge animal immune system. An unrelated 4T1 breast cancer cell line (1×10^5) was implanted in the left upper flank of these animals at the same time. Tumor initiation and tumor growth were monitored. Data points represent group means of the tumor volumes and error bars represent standard error of the mean (SEM).

4T1-luc2 tumor = assay: 4T1-luc2 orthotopic breast cancer metastasis model, IT injection; type: in vivo, mouse
Excerpt: Syngeneic mouse models are frequently used in assessing effect of immune-modulating compounds because both innate and adaptive immune systems are intact in the wild-type mouse strains.
Each 6-8 weeks old female Balb/c mouse was surgically implanted with 1×10^6 4T1-luc2 tumor cells in the abdominal 4th right mammary fat pad for tumor development. The animals were randomized and treatments were started when the average tumor volume reached 86 mm^3. The group assignment, treatment dose, and schedule were as follows:
Mice were monitored daily for clinical signs and body weights were measured regularly as an indirect measure of toxicity. […] .
After grouping, the bioluminescence measurements were taken once per week to monitor tumor growth in the fat pads and metastasis to other organs. Briefly, the mice were weighted and intra-peritoneal injected with luciferin at 150 mg/kg. 10 minutes after the luciferin administration, the animals were pre-anesthetized with the mixture gas of oxygen and isoflurane. The animals were moved into the imaging chamber for bioluminescence measurements with IVIS (Lumina II) in a complete anesthetic state. […] The bioluminescence signal decreased to the baseline range from the third week in three animals. These three animals were monitored for 87 days and their primary tumors were cured without any metastasis (FIG. 9B-9D). […] However, all tumors in the vehicle group mice kept growing, had steady increase in the bioluminescence signals, and had metastasized before mice died before day 40. A Kaplan-Meier method was used to analyze the animal survival rate between the vehicle group (n=12) and the treated group (n=11, one animal died unexpectedly due to animal attacking). The median survival day is 35.5 for the vehicle group and is 42 for the treated group (P<0.05).

[2] = 20 mg/ml, 20 μl (400 μg) IT, Balb/c mice
[3] = challenge of 6 cured mice with 4T1 cells
[4] = re-challenge of 6 cured mice with CT26 cells, 32 days

**Q.** With CC1=C[C@H]2[C@@]3(O)[C@H](C)C[C@]4(OC(=O)[C@@H](N)CC5CCCCC5)[C@H]([C@@H]3C=C(CO)C[C@]2(O)C1=O)C4(C)C as the molecule, how does the “Concentration in Rat Plasma after Bolus Injection, Mean” value (from here on “Concentration in Rat Plasma”) ([1]; Dose 0.1 mg/kg iv, 0.0167 hour post dose) read?
**A.** The value was 216.0 ng/mL.

**Q.** What about the “Concentration in Rat Plasma” value ([1]; Dose 0.1 mg/kg iv, 0.0833 hour post dose) of the same molecule?
**A.** The value was 49.2 ng/mL.

**Q.** What about the “Concentration in Rat Plasma” value ([1]; Dose 0.1 mg/kg iv, 0.25 hour post dose) of the same molecule?
**A.** Its value is 28.7 ng/mL.

**Q.** And the “Concentration in Rat Plasma” value ([1]; Dose 0.1 mg/kg iv, 0.5 hour post dose)?
**A.** The value was 19.4 ng/mL.

**Q.** And the “Concentration in Rat Plasma” value ([1]; Dose 0.1 mg/kg iv, 1 hour post dose)?
**A.** The value was 14.6 ng/mL.

**Q.** And the “Concentration in Rat Plasma” value ([1]; Dose 0.1 mg/kg iv, 2 hour post dose)?
**A.** The value was 5.0 ng/mL.

**Q.** And the “Concentration in Rat Plasma” value ([1]; Dose 0.1 mg/kg iv, 4 hour post dose)?
**A.** Its value is 1.0 ng/mL.

**Q.** And the “Concentration in Rat Plasma” value ([1]; Dose 0.1 mg/kg iv, 7 hour post dose)?
**A.** The value was under 1 ng/mL.

**Q.** What about the “Concentration in Rat Plasma” value ([1]; Dose 0.1 mg/kg iv, 24 hour post dose) of the same molecule?
**A.** Its value is under 1 ng/mL.

**Q.** And the “Concentration in Rat Plasma” value ([1]; Dose 0.2 mg/kg iv, 0.0167 hour post dose)?
**A.** The value was 334.0 ng/mL.

**Q.** And the “Concentration in Rat Plasma” value ([1]; Dose 0.2 mg/kg iv, 0.0833 hour post dose)?
**A.** The value was 102.0 ng/mL.

**Q.** What about the “Concentration in Rat Plasma” value ([1]; Dose 0.2 mg/kg iv, 0.25 hour post dose) of the same molecule?
**A.** The value was 65.0 ng/mL.

**Q.** What about the “Concentration in Rat Plasma” value ([1]; Dose 0.2 mg/kg iv, 0.5 hour post dose) of the same molecule?
**A.** Its value is 43.6 ng/mL.

**Q.** What about the “Concentration in Rat Plasma” value ([1]; Dose 0.2 mg/kg iv, 1 hour post dose) of the same molecule?
**A.** The value was 37.6 ng/mL.

**Q.** And the “Concentration in Rat Plasma” value ([1]; Dose 0.2 mg/kg iv, 2 hour post dose)?
**A.** Its value is 29.1 ng/mL.

**Q.** And the “Concentration in Rat Plasma” value ([1]; Dose 0.2 mg/kg iv, 4 hour post dose)?
**A.** The value was 6.0 ng/mL.

**Q.** What about the “Concentration in Rat Plasma” value ([1]; Dose 0.2 mg/kg iv, 7 hour post dose) of the same molecule?
**A.** The value was under 1 ng/mL.

**Q.** And the “Concentration in Rat Plasma” value ([1]; Dose 0.2 mg/kg iv, 24 hour post dose)?
**A.** Its value is under 1 ng/mL.

**Q.** And the AUClast ([1]; 0.1 mg/kg)?
**A.** Its AUClast is 48.3 ng·h/mL.

**Q.** And the C0 ([1]; 0.1 mg/kg)?
**A.** The C0 was 314 ng/mL.

**Q.** And the CL ([1]; 0.1 mg/kg)?
**A.** The CL was 32.9 mL/min/kg.

**Q.** What about the MRTInf ([1]; 0.1 mg/kg) of the same molecule?
**A.** Its MRTInf is 0.873 h.

**Q.** And the Vss ([1]; 0.1 mg/kg)?
**A.** The Vss was 1.73 L/kg.

**Q.** What about the Vz ([1]; 0.1 mg/kg) of the same molecule?
**A.** The Vz was 2.44 L/kg.

**Q.** What about the t1/2 ([1]; 0.1 mg/kg) of the same molecule?
**A.** The t1/2 was 0.857 h.

**Q.** What about the AUClast ([1]; 0.2 mg/kg) of the same molecule?
**A.** Its AUClast is 119 ng·h/mL.

**Q.** And the C0 ([1]; 0.2 mg/kg)?
**A.** Its C0 is 450 ng/mL.

**Q.** What about the CL ([1]; 0.2 mg/kg) of the same molecule?
**A.** Its CL is 21.5 mL/min/kg.

**Q.** What about the MRTInf ([1]; 0.2 mg/kg) of the same molecule?
**A.** The MRTInf was 2.93 h.

**Q.** What about the Vss ([1]; 0.2 mg/kg) of the same molecule?
**A.** The Vss was 2.77 L/kg.

**Q.** And the Vz ([1]; 0.2 mg/kg)?
**A.** The Vz was 3.25 L/kg.

**Q.** What about the t1/2 ([1]; 0.2 mg/kg) of the same molecule?
**A.** The t1/2 was 2.29 h.

**Q.** With CC1=C[C@H]2[C@@]3(O)[C@H](C)C[C@]4(OC(=O)[C@H](N)CCCCCCc5ccccc5)[C@H]([C@@H]3C=C(CO)C[C@]2(O)C1=O)C4(C)C as the molecule, how does the body weight loss (CT26 tumors; [2]) read?
**A.** The body weight loss was “less than 10%”.

**Q.** And the “mice alive at day 50 with tumors completely eradicated” value (CT26 tumors; N 10)?
**A.** The value was 6.

**Q.** What about the median survival (CT26 tumors; analysis to day 50) of the same molecule?
**A.** The median survival was “not reached”.

**Q.** And the “Tumor initiation (mice)” value (CT26 tumors; [3])?
**A.** The value was 6.

**Q.** And the “Tumor-free (mice)” value (CT26 tumors; [3])?
**A.** Its value is 0.

**Q.** And the “mice with tumors eliminated” value (CT26 tumors; day 3 after the first IT dose, N 10)?
**A.** Its value is 8.

**Q.** And the mean tumor volume (CT26 tumors; day 12, 20 mg/ml, 20 μl IT)?
**A.** Its mean tumor volume is 35 mm^3.

**Q.** What about the “mice with tumor relapse” value (CT26 tumors; from day 10, N 10) of the same molecule?
**A.** The value was 4.

**Q.** And the “Tumor initiation (mice)” value (CT26 tumors; [4])?
**A.** Its value is 0.

**Q.** And the “Tumor-free (mice)” value (CT26 tumors; [4])?
**A.** Its value is 6.

**Q.** What about the “mean body weight loss” value (4T1-luc2 tumor; [2]) of the same molecule?
**A.** Its value is “less than 10%”.

**Q.** And the median survival day (4T1-luc2 tumor; 20 mg/ml, 20 μl (400 μg) IT, n=11)?
**A.** The median survival day was 42 days.

**Q.** And the “animals with primary tumors cured without any metastasis” value (4T1-luc2 tumor; monitored for 87 days, single IT treatment)?
**A.** Its value is “three”.
